In one series the test system is L6 cells. In words: Glucose uptake test by L6 cells. It is filed as cell-based. Conditions: Rattus norvegicus, 1 hour, 2-deoxy-[3H]-glucose uptake, control (MEM solvent alone) = 100%, read-out: Ratio activity (%); for activity at 10 µg/mL: treatment concentration 10 μg/ml; for activity at 100 µg/mL: treatment concentration 100 μg/ml. The procedure:
Glucose Uptake Test by L6 Cells
Each of compounds under test was applied to L6 cells (rat cells originally derived from skeletal muscles) by the following method to measure the stimulating effect on glucose uptake. Namely, L6 cells were suspended in α-minimum essential medium (hereinafter referred to simply as MEM) containing 10% fetal bovine serum (hereinafter referred to simply as FBS), and inoculated into a 96-well plastic plate in an amount of 5×10^4 cells/well and cultivated in an incubator (5% carbon dioxide gas, 37° C.) until the cells grew all over the well. Then, the culture medium was switched to MEM solution containing 2% BS, followed by cultivation further for from 7 to 10 ays (the culture medium was exchanged every three days) to differentiate the cells into skeletal muscle cells. Then, the culture medium was replaced with MEM solution without FBS, followed by cultivation for three hours, and then the compound under test prepared to a treatment concentration (diluted with MEM solution without FBS) was reacted with the skeletal muscle cells at 37° C. for 1 hour. The cells were washed with Krebs-Henseleit-Ringer buffer solution (hereinafter referred to simply as KHR buffer solution), and 2-deoxy-[^3H]-glucose was added to the cells in the KHR buffer solution, followed by treatment at 37° C. for 10 minutes. The treatment solution was removed, the cells were washed with the KHR buffer solution, then the cells were dissolved in a 1N sodium hydroxide solution in an appropriate amount, and the [^3H] radio activity was measured by means of a liquid scintillation counter (cpm) The percentage of the glucose uptake was represented by the percentage of radio activity when the compound under test was applied, taking the radio activity of the control (the MEM solvent alone was applied) as 100%. Each of the compounds as identified in Table 27 was used for treatment at a concentration of each of 10 μg/ml and 100 μg/ml to examine the stimulating effect on glucose uptake.

The next series concerns KK-Ay/Ta mice. In words: Test for hypoglycemic effect in KK-Ay/Ta mice. Type of series: in vivo. The settings on record: 50 mg/kg single oral dose, percentage to level before administration, significant vs vehicle control (P≦0.05). The procedure:
Using KK-Ay/Ta mice (purchased from CLEA Japan, Inc.) as spontaneous diabetic type II, the hypoglycemic effect of each of compounds under test was confirmed by the following method.
Male KK-Ay/Ta mice sufficiently preliminarily bred and acclimatized were classified into groups, each consisting of six mice, and each of the compounds under test was administered. Each of the compounds under test as suspended in 0.5% carboxymethyl cellulose (manufactured by Nacalai Tesque), and each compound was orally administered singly in a dose of 50 mg/kg (10 ml/kg) by means of an oral conductor. At the same time, as a group of vehicle control, 0.5% carboxymethyl cellulose was administered in the same volume (10 ml/kg) as for the group of administration of compound under test.
Collection of blood was carried out by the following method before the administration of each of the compounds under test or the vehicle, and at the time as identified in Table 28 after the administration. The tail vein of each mouse was shallowly cut by the edge of a razor to cause bleeding in an amount of blood of from 10 to 20 μL, and the blood was collected by a micropipet. The collected blood samples were immediately mixed with a heparin solution (20 U/ml) (manufactured by Mochida Yakuhin) in the same amount as the respective collected blood samples, and subjected to centrifugation at 4° C. for 5 minutes (10,000 rpm) by means of a cooling centrifugal machine. The plasma after the centrifugation was obtained as a sample for blood glucose level measurement.
The blood glucose level was measured by means of glucose oxidase method, and measured by using a commercially available assay kit (Glucose CII TEST WAKO, manufactured by Wako Pure Chemical Industries, Ltd.). Measurement was carried out on the day after the collection of blood, and the obtained plasma was stored at −20° C. before the measurement.
The blood glucose level at the time of collection of blood was calculated as the percentage to the blood glucose level before administration of the compound under test, and the hypoglycemic effect of the compound under test was evaluated by comparison with the change of the blood glucose level (percentage) of the group of vehicle control at the time of collection of blood. The evaluation results of the hypoglycemic effect are considered to have a significant difference compared with the vehicle control by means of Wilcoxon's rank sum test (P≦0.05)

In the case of `CSc1nc2cc(C)nn2c(Nc2cccc(C#N)c2)c1C#N` [compound 186], the melting point (as a rule, the temperature, or range, at which the solid turns liquid) was in the range of 235 to 238 °C. In addition, in the series with L6 cells, the activity at 10 µg/mL is over 115% and the activity at 100 µg/mL is over 115%. Besides, in the series with KK-Ay/Ta mice (after 3 hours), the “Rate of change of blood glucose level” value was 80%.
For the compound `CSc1nc2ccnn2c(NCC2OCCO2)c1C#N` [compound 8], the melting point lay within 157 to 158 °C. Moreover, the activity at 100 µg/mL with L6 cells was over 115%. Moreover, in the series on KK-Ay/Ta mice (after 6 hours), the “Rate of change of blood glucose level” value was found to be 68%.
In the case of `CSc1nc2ccnn2c(NCc2ccc(C)cc2)c1C#N` [compound 50], the melting point was 159 °C. In the series with L6 cells, the activity at 10 µg/mL was over 115% and the activity at 100 µg/mL is over 115%. In addition, the “Rate of change of blood glucose level” value in the series with KK-Ay/Ta mice (after 3 hours) came out at 74%.
`CSc1nc2ccnn2c(Nc2ccc([N+](=O)[O-])cc2)c1C#N` [compound 200] registered a melting point of over 270 °C. Besides, in the series with L6 cells, the activity at 10 µg/mL is over 115% and the activity at 100 µg/mL is over 115%. Also, the “Rate of change of blood glucose level” value in the series on KK-Ay/Ta mice (after 3 hours) is 79%.
With `CSc1nc2ccnn2c(NCc2ccncc2)c1C#N` [Compound No. 3, 7-(4-pyridylmethyl)amino-5-methylthiopyrazolo[1,5-a]pyrimidine-6-carbonitrile], the melting point was in the range of 153 to 154 °C. Further, in the series on L6 cells, the activity at 10 µg/mL was over 115% and the activity at 100 µg/mL is over 115%. Also, in the series with KK-Ay/Ta mice (after 3 hours), the “Rate of change of blood glucose level” value came out at 78%.

The values are drawn from patent US7067520B2, “Preventive or therapeutic medicines for diabetes containing fused-heterocyclic compounds or their salts” (Ishihara Sangyo Kaisha, Ltd., priority 2000, dated 2006).
